pEC50: −log10 of the molar value. Converted amounts (≈) assume the structure as drawn.
Key:
[1] = Lipophilicity, log D of the compound at pH 7.4; settings: buffer
[2] = Passive transcellular permeability of the compound at pH 7.4 by PAMPA; format: ADME; settings: for Papp: read-out: permeability
[3] = Passive transcellular permeability of the compound at pH 4 by PAMPA; format: ADME; settings: for Papp: read-out: permeability
Plasmodium falciparum [4] = assay: Antimalarial activity against chloroquine, mefloquine, pyrimethamine and atovaquone-resistant Plasmodium falciparum TM90-C2B infected in human A+ erythrocytes after 72 hrs by SYBR Green I assay; format: functional, organism-based
Plasmodium falciparum [5] = assay: Antimalarial activity against chloroquine and pyrimethamine-resistant Plasmodium falciparum W2 infected in human A+ erythrocytes after 72 hrs by SYBR Green I assay; format: functional, organism-based; settings: W2, 72 h
J774 = assay: Cytotoxicity against mouse J774 cells; format: cell-based
in vitro = settings: mouse, J774 cells
Description: Cytotoxicity index, ratio of EC50 for mice (Mus musculus) J774 cells to EC50 for chloroquine, mefloquine, pyrimethamine and atovaquone-resistant Plasmodium falciparum TM90-C2B

physchem = settings: aqueous, pH 7.4
Description: Aqueous solubility of the compound at pH 7.4 by HPLC analysis

SMILES	logD [1]	Papp [2] [×10⁻⁶ cm/s]	Papp [3] [×10⁻⁶ cm/s]	pEC50 (Plasmodium falciparum [4])	pEC50 (Plasmodium falciparum [5])	pEC50 (J774)	selectivity ratio (in vitro)	solubility (physchem) [µM]	permeability [2] [×10⁻⁶ cm/s]	permeability [3] [×10⁻⁶ cm/s]
Cc1nc2ccccc2c(OCc2ccccc2)c1Br	2.52	794	99.7	–	–	–	–	–	–	–
CCCCC#Cc1c(C)[nH]c2ccc(Cl)cc2c1=O	2.98	–	171	4.37	< 5.04	< 4.44	> 0.84	2 (≈ 0.548 µg/mL)	–	–
COc1cc2[nH]c(C)c(Cc3ccccc3)c(=O)c2cc1Cl	1.99	566	575	7.16	7.03	< 4.50	–	–	–	–
Cc1[nH]c2cc(Cl)ccc2c(=O)c1-c1ccccc1	2.18	–	37.8	5.73	6.67	< 4.43	> 19.9	< 2	–	–
CCCCCCC/C=C/c1c(C)[nH]c2ccccc2c1=O	4.26	–	174	–	7.89	–	–	< 2	–	–
COc1cccc2c(=O)c(-c3ccccc3)c(C)[nH]c12	1.73	37	33.9	5.78	5.69	< 4.42	> 22.6	–	–	–
COc1c(-c2ccccc2)c(C)nc2ccc(Cl)cc12	–	–	–	< 5.06	< 5.06	–	–	–	–	–
CCN(CC)CCCC(C)Nc1ccnc2cc(Cl)ccc12 (stereo not given) [CHLOROQUINE]	–	–	–	7.32	6.79	–	–	–	–	–
COc1c(Cc2ccccc2)c(C)nc2ccc(Cl)cc12	4.93	268	360	< 5.08	< 5.08	–	–	< 2	–	–
CCCCCCCCCc1c(C)[nH]c2ccccc2c1=O	4.33	–	–	7.40	7.62	5.55	69.9	–	–	–
Cc1[nH]c2ccc(F)cc2c(=O)c1Br	1.61	18.3	16.2	6.90	6.03	< 4.41	> 313	–	–	–
COc1cc2[nH]c(C)c(Br)c(=O)c2cc1Cl	0	152	125	–	–	–	–	–	–	–
Cc1[nH]c2cc(Cl)c(Cl)cc2c(=O)c1-c1ccccc1	3.05	–	–	6.46	6.24	< 4.48	> 93.3	< 2	–	–
COc1ccc2c(=O)c(Cc3ccccc3)c(C)n(C)c2c1	3.24	299	432	5.11	< 5.07	–	–	> 20	–	–
COc1ccc2nc(C)c(Cc3ccccc3)c(OC)c2c1	4.2	–	294	< 5.07	< 5.07	–	–	2 (≈ 0.587 µg/mL)	1067.76	–
COc1ccc2c(c1)c(=O)c(Cc1ccccc1)c(C)n2C	2.73	268	295	5.09	< 5.07	–	–	10 (≈ 2.93 µg/mL)	–	–
Cc1[nH]c2c(Cl)c(Cl)ccc2c(=O)c1-c1ccccc1	3.27	197	189	< 5.09	< 5.09	< 4.48	–	–	–	–
O=C1C(O)=C([C@H]2CC[C@H](c3ccc(Cl)cc3)CC2)C(=O)c2ccccc21 [ATOVAQUONE]	–	–	–	5.21	9.27	–	–	–	–	–
CCCCC#Cc1c(C)[nH]c2ccc(OC)cc2c1=O	5.25	–	–	< 5.04	< 5.04	< 4.43	> 4	–	2438.2	1020.6

SMILES	logD [1]	Papp [2] [×10⁻⁶ cm/s]	Papp [3] [×10⁻⁶ cm/s]	pEC50 (Plasmodium falciparum [4])	pEC50 (Plasmodium falciparum [5])	pEC50 (J774)	selectivity ratio (in vitro)	solubility (physchem) [µM]	permeability [2] [×10⁻⁶ cm/s]	permeability [3] [×10⁻⁶ cm/s]
C=C(CCCCCCC)c1c(C)[nH]c2ccccc2c1=O	2.35	–	–	–	7.40	–	–	< 2	–	1755.67
Cc1[nH]c2ccccc2c(=O)c1/C=C/c1ccccc1	4.4	224	222	< 5.04	< 5.04	< 4.44	> 4	–	–	–
COc1cc2[nH]c(C)c(CC(C)C)c(=O)c2cc1Cl	2.99	368	496	7.20	7.06	< 4.45	–	–	–	–
CCCCC#Cc1c(C)[nH]c2cc(OC)c(Cl)cc2c1=O	2.45	–	148	5.38	5.67	4.82	3.6	> 20	–	–
COc1ccc2c(=O)c(-c3ccccc3)c(C)[nH]c2c1	1.56	9.89	–	6.57	6.54	< 4.42	> 140	–	–	–
CCCCC/C=C/c1c(C)[nH]c2cc(OC)c(Cl)cc2c1=O	3.57	46.3	280	7.97	7.50	< 4.51	> 2950	–	–	–
COc1ccc2[nH]c(C)c(-c3ccccc3)c(=O)c2c1	1.61	126	–	< 5.03	< 5.03	< 4.42	> 4	–	–	–
Cc1c(Cc2ccccc2)c(=O)c2cc(Cl)ccc2n1C	3.21	489	510	< 5.08	< 5.08	–	–	2 (≈ 0.596 µg/mL)	–	–
Cc1cc(=O)c2ccccc2[nH]1	–	1.54	1.56	< 4.20	< 4.35	< 4.20	–	–	–	–
Cc1c(-c2ccccc2)c(=O)c2cc(Cl)ccc2n1C	–	–	–	< 5.06	< 5.06	–	–	–	–	–
CCCCC#Cc1c(C)[nH]c2ccccc2c1=O	5.44	–	500	< 4.98	5.08	5.05	–	–	2137.05	–
COc1ccc2c(OC)c(Cc3ccccc3)c(C)nc2c1	4.35	–	325	< 5.07	< 5.07	–	–	2 (≈ 0.587 µg/mL)	1277.24	–
COc1ccc2c(=O)cc(C)[nH]c2c1	1.2	8.91	–	4.90	< 4.88	< 4.28	> 4.2	–	–	–
CCCCCCCCCc1c(C)[nH]c2cc(OC)c(Cl)cc2c1=O	4.74	–	–	8.80	8.22	< 4.54	> 18000	< 2	–	–
CCCCCCCc1c(C)nc2ccccc2c1O	3.39	–	–	6.98	7.03	5.29	48.3	–	–	–
CCCCCC/C=C\Cc1c(C)[nH]c2ccccc2c1=O	5.94	–	–	–	6.99	–	–	< 2	–	–
Cc1ccc2[nH]c(C)c(Br)c(=O)c2c1	1.07	42.2	26.4	6.58	6.54	4.71	74.9	–	–	–
COc1ccc2[nH]c(C)c(Br)c(=O)c2c1	1.62	16.7	–	5.93	5.52	< 4.43	> 32	> 20	–	–

— ChEMBL document CHEMBL1255199, “Endochin optimization: structure-activity and structure-property relationship studies of 3-substituted 2-methyl-4(1H)-quinolones with antimalarial activity” (J Med Chem, 2010)
